Assay results reported in patent publication US12441768B2, “Compositions and methods for treating endometriosis” (EndoMet Biosciences, Inc., priority 2018, dated 2025).
pEC50, pKd: −log10 of the molar value. Where a SMILES comes first, the peptide text is derived from it. [ ]: non-standard residue; d: D form. The star is where a group is joined. ξ: configuration not given here. ξIle = CC[C@H](C)C(N)C(=O)O; Piv = CC(C)(C)C(=O)*

Assays:
[1] = in vitro; settings: % Viability non-Wnt responsive cells
[2] = molecular target: T1, β-catenin (Homo sapiens, UniProt P35222); experiment: KD50 measurement using competitive fluorescence polarization (FP) with labelled TCF4; type: binding; settings: fluorescence polarization, β-catenin; for pKd: read-out: β-Cat FP KD
T1 sequence (P35222 1-781): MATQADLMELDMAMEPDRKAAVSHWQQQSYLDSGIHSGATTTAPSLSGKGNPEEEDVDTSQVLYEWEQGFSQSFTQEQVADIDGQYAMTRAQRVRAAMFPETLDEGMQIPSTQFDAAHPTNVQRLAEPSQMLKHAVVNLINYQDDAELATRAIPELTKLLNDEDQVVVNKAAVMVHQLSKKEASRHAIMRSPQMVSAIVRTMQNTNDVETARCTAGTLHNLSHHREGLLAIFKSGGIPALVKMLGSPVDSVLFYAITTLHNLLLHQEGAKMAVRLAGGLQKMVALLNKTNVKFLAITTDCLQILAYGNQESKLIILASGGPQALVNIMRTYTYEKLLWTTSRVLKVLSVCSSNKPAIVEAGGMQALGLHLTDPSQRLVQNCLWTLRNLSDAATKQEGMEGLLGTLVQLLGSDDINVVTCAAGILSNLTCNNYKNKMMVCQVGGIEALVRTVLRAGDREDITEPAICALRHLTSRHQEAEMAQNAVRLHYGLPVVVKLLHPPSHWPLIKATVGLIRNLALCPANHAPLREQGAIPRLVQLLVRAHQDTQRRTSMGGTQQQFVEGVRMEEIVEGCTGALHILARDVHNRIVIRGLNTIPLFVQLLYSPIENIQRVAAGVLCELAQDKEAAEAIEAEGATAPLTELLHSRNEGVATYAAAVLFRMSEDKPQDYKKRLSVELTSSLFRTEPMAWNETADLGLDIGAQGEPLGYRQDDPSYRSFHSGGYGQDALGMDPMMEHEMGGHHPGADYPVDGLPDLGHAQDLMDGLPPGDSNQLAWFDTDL
In short: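 First, β-catenin at 100 nM is mixed with 5 nM labelled TCF4 at room temperature. Next, compound is added across serial dilutions (10 nM to 30 uM). Finally, fluorescence polarization is measured (ex 470 nm, em 520 nm); experiments are done three times.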

[3] = molecular target: Wnt-responsive promoter (TCF/LEF); experiment: Wnt-dependent luciferase reporter assay; type: cell-based, murine
In short: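 EC50 (uM) derived from inhibition of luminescence in Wnt3a-stimulated murine 3T3 cells expressing luciferase under a TCF/LEF promoter, with peptides added across a concentration range and vehicle as control.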

Row | Compound | viability [1] [%] | β-Cat FP Hill slope [2] | pKd [2] | pEC50 [3]
1 | CC[C@H](C)[C@@H]1NC(=O)[C@H](CO)NC(=O)[C@H](CCC(=O)O)NC(=O)[C@H](C)N(C)C(=O)[C@H](CCSC)NC(=O)[C@@H](N)CCCCNC(=O)CNC(=O)[C@H](Cc2c[nH]c3ccccc23)NC(=O)[C@H](C(C)C)NC(=O)[C@H](CCCNC(=N)N)NC(=O)[C@H](CCC(N)=O)NC(=O)[C@H](C(C)C)NC(=O)[C@H](Cc2c[nH]cn2)NC(=O)[C@H](CCC(=O)O)NC(=O)[C@H](CC(=O)O)NC(=O)[C@H](CC(C)C)NC1=O [compound 30] (HELM PEPTIDE1{K.M.[meA].E.S.I.L.D.E.H.V.Q.R.V.W.G}$PEPTIDE1,PEPTIDE1,1:R3-16:R2$$$V2.0; bridges inferred) | 106 | 0.7 | 5.00 to 6.00 | < 4.52
2 | CC[C@H](C)[C@H](NC(=O)[C@H](CC(C)C)NC(=O)[C@H](Cc1ccccc1)NC(=O)[C@H](Cc1c[nH]c2ccccc12)NC(=O)[C@@H](N)CCSC)C(=O)N[C@@H](CS)C(=O)N[C@@H](Cc1ccccn1)C(=O)N[C@@H](Cc1c[nH]c2ccccc12)C(=O)NCC(=O)O [compound 148] (HELM PEPTIDE1{M.W.F.L.I.C.[O=C([C@H](Cc1ccccn1)N[*:1])[*:2]].W.G}$$$$V2.0) | 95.5 | 0.7 | 6.00 to 6.40 | 4.82 to 5.12
3 | CC[C@H](C)[C@H](NC(=O)[C@H](CC(C)C)NC(=O)[C@H](Cc1ccccc1)NC(=O)[C@H](Cc1c[nH]c2ccccc12)NC(=O)[C@H](CCSC)NC(=O)[C@H](CCCNC(=N)N)NC(=O)[C@H](CO)NC(=O)[C@@H](N)CCSC)C(=O)N[C@@H](CO)C(=O)N[C@@H](Cc1ccccc1)C(=O)N[C@@H](Cc1c[nH]c2ccccc12)C(=O)N[C@@H](CCSC)C(=O)NCC(=O)O [compound 14] (H-MSRMWFLISFWMG-OH) | 98 | – | < 4.52 | > 5.12
4 | CC[C@H](C)[C@H](NC(=O)[C@H](CC(C)C)NC(=O)[C@H](Cc1ccccc1)NC(=O)[C@H](Cc1c[nH]c2ccccc12)NC(=O)[C@H](CCSC)NC(=O)[C@H](CCCNC(=N)N)NC(=O)[C@H](CO)NC(=O)[C@@H](N)CCSC)C(=O)N[C@@H](CO)C(=O)N[C@@H](Cc1ccccc1)C(=O)N[C@@H](Cc1c[nH]c2ccccc12)C(=O)N(C)[C@@H](C)C(=O)NCC(=O)O [compound 16] (HELM PEPTIDE1{M.S.R.M.W.F.L.I.S.F.W.[meA].G}$$$$V2.0) | 92 | – | < 4.52 | 4.65 to 4.82
5 | CC[C@@H](C)[C@H]1NC(=O)[C@@H](CC(C)C)NC(=O)[C@@H](Cc2ccccc2)NC(=O)[C@H](Cc2c[nH]c3ccccc23)NC(=O)[C@@H](CCSC)NC(=O)CCCCCCCCCCCNC(=O)C[C@@H](C(=O)O)NC(=O)[C@H](Cc2c[nH]c3ccccc23)NC(=O)[C@@H](Cc2ccccc2)NC(=O)[C@H](CS)NC1=O [compound 190] (HELM PEPTIDE1{[O=C(CCCCCCCCCCCN[*:1])[*:2]].[dM].W.[dF].[dL].[dI].C.[dF].W.D}$PEPTIDE1,PEPTIDE1,1:R1-10:R3$$$V2.0) | 99.6 | 1.92 | 6.00 to 6.40 | > 5.12
6 | CC[C@H](C)C(NC(=O)[C@H](CC(C)C)NC(=O)C(NC(=O)[C@H](Cc1c[nH]c2ccccc12)NC(=O)[C@H](CCSC)NC(=O)C(C)(C)C)[C@@H](C)CC)C(=O)N[C@@H](CO)C(=O)N[C@@H](Cc1ccccc1)C(=O)N[C@@H](Cc1c[nH]c2ccccc12)C(=O)NCC(=O)O (some centres unmarked) [compound 224] (Piv-MW[ξIle]L[ξIle]SFWG-OH) | 95.7 | 1.04 | > 6.40 | > 5.12
7 | CC[C@H](C)[C@H]1NC(=O)[C@H](CC(C)C)NC(=O)[C@@H](Cc2ccccc2)NC(=O)[C@H](Cc2c[nH]c3ccccc23)NC(=O)[C@@H](CCSC)NC(=O)CCCCCCCCCCCNC(=O)C[C@@H](C(=O)O)NC(=O)[C@H](Cc2c[nH]c3ccccc23)NC(=O)[C@@H](C)NC(=O)[C@@H](CS)NC1=O [compound 193] (HELM PEPTIDE1{[O=C(CCCCCCCCCCCN[*:1])[*:2]].[dM].W.[dF].L.[CC[C@H](C)[C@@H](N[*:1])C(=O)[*:2]].[dC].[dA].W.D}$PEPTIDE1,PEPTIDE1,1:R1-10:R3$$$V2.0) | 96.6 | 2.34 | 6.00 to 6.40 | > 5.12
8 | CC[C@H](C)[C@@H]1NC(=O)[C@H](CC(C)C)NC(=O)[C@H](Cc2ccc(O)cc2)NC(=O)[C@H](Cc2c[nH]c3ccccc23)NC(=O)[C@H](CCSC)NC(=O)[C@H](CCCNC(=N)N)NC(=O)[C@H](CO)NC(=O)[C@H](CCSC)NC(=O)[C@@H](N)CCCCNC(=O)CNC(=O)[C@H](Cc2c[nH]c3ccccc23)NC(=O)[C@H](Cc2ccccc2)NC(=O)[C@H](CO)NC1=O [compound 27] (HELM PEPTIDE1{K.M.S.R.M.W.Y.L.I.S.F.W.G}$PEPTIDE1,PEPTIDE1,1:R3-13:R2$$$V2.0; bridges inferred) | 96 | – | – | < 4.52
9 | CC[C@H](C)[C@@H]1NC(=O)[C@H](Cc2c[nH]cn2)NC(=O)[C@H](CCC(=O)O)NC(=O)[C@H](Cc2ccccc2)NC(=O)[C@H](Cc2c[nH]c3ccccc23)NC(=O)[C@H](CO)NC(=O)[C@H]([C@@H](C)CC)NC(=O)[C@H](C)N(C)C(=O)[C@H](CC(C)C)NC(=O)[C@@H]2CCCN2C(=O)[C@H](CCSC)NC(=O)[C@@H](N)CCCCNC(=O)CNC1=O [compound 29] (HELM PEPTIDE1{K.M.P.L.[meA].I.S.W.F.E.H.I.G}$PEPTIDE1,PEPTIDE1,1:R3-13:R2$$$V2.0; bridges inferred) | 107 | 1.72 | 6.00 to 6.40 | < 4.52
10 | CC[C@H](C)[C@H](NC(=O)[C@H](CC(C)C)NC(=O)[C@H](Cc1ccccc1)NC(=O)[C@H](Cc1c[nH]c2ccccc12)NC(=O)[C@H](CCSC)NC(=O)[C@H](CCCNC(=N)N)NC(=O)[C@@H](NC(=O)[C@@H](N)CCSC)[C@@H](C)CC)C(=O)N[C@@H](CO)C(=O)N[C@@H](Cc1ccccc1)C(=O)N[C@@H](Cc1c[nH]c2ccccc12)C(=O)NCC(=O)O [compound 15] (H-MIRMWFLISFWG-OH) | 103 | – | – | > 5.12
11 | CC[C@H](C)[C@H](NC(=O)[C@H](CO)NC(=O)[C@H](CCC(=O)O)NC(=O)[C@H](Cc1c[nH]c2ccccc12)NC(=O)[C@@H](N)CCSC)C(=O)N[C@@H](CC(C)C)C(=O)N[C@@H](CC(=O)O)C(=O)N[C@@H](CCC(=O)O)C(=O)N[C@@H](Cc1c[nH]cn1)C(=O)N[C@H](C(=O)N[C@@H](CCC(N)=O)C(=O)N[C@@H](CCCNC(=N)N)C(=O)N[C@H](C(=O)N[C@@H](Cc1c[nH]c2ccccc12)C(=O)NCC(=O)O)C(C)C)C(C)C [compound 22] (H-MWESILDEHVQRVWG-OH) | 99.6 | – | – | < 4.52
12 | CC[C@H](C)[C@@H]1NC(=O)[C@H](CC(C)C)NC(=O)[C@H](Cc2ccccc2)NC(=O)[C@H](Cc2c[nH]c3ccccc23)NC(=O)[C@H](CCSC)NC(=O)[C@H](CCCNC(=N)N)NC(=O)[C@H](CO)NC(=O)[C@H](CCSC)NC(=O)[C@@H](N)CCCCNC(=O)CNC(=O)[C@H](Cc2c[nH]c3ccccc23)NC(=O)[C@H](CC(C)C)NC(=O)[C@H](CO)NC1=O [compound 28] (HELM PEPTIDE1{K.M.S.R.M.W.F.L.I.S.L.W.G}$PEPTIDE1,PEPTIDE1,1:R3-13:R2$$$V2.0; bridges inferred) | 91 | – | – | 4.52 to 4.65
13 | CC[C@H](C)[C@@H]1NC(=O)[C@H](CC(C)C)NC(=O)[C@H](Cc2ccccc2)NC(=O)[C@H](Cc2c[nH]c3ccccc23)NC(=O)[C@H](CCSC)NC(=O)[C@H](CCCNC(=N)N)NC(=O)[C@H](CO)NC(=O)[C@H](CCSC)NC(=O)[C@@H](N)CCCCNC(=O)CNC(=O)[C@H](CCCNC(=N)N)NC(=O)[C@H](Cc2c[nH]c3ccccc23)NC(=O)[C@H](Cc2ccccc2)NC(=O)[C@H](CO)NC1=O [compound 24] (HELM PEPTIDE1{K.M.S.R.M.W.F.L.I.S.F.W.R.G}$PEPTIDE1,PEPTIDE1,1:R3-14:R2$$$V2.0; bridges inferred) | 96.8 | 1 | > 6.40 | < 4.52
14 | CC[C@H](C)[C@@H]1NC(=O)[C@H](CC(C)C)NC(=O)[C@H](CC(C)C)NC(=O)[C@H](Cc2c[nH]c3ccccc23)NC(=O)[C@H](CCSC)NC(=O)[C@H](CCCNC(=N)N)NC(=O)[C@H](CO)NC(=O)[C@H](CCSC)NC(=O)[C@@H](N)CCCCNC(=O)CNC(=O)[C@H](Cc2c[nH]c3ccccc23)NC(=O)[C@H](Cc2ccccc2)NC(=O)[C@H](CO)NC1=O [compound 25] (HELM PEPTIDE1{K.M.S.R.M.W.L.L.I.S.F.W.G}$PEPTIDE1,PEPTIDE1,1:R3-13:R2$$$V2.0; bridges inferred) | 97 | – | – | 4.82 to 5.12
